Source: ChEMBL document CHEMBL3272053, “(exo, exo)-2-Aryltropane-3-carboxylic esters, hypoglycemic agents with accompanying analgesic activity” (J Med Chem, 1978)
Calls of active or inactive are those of the source. The calls are words filed in the database; no cut-off is given here.

Tests used:
[1] = system: Mus musculus; experiment: Analgesic activity in sc dosed Swiss-Webster mouse assessed as reduction of acetylcholine-induced writhing; type: functional; settings: Mus musculus, Swiss-Webster, sc; read-out: ED50
[2] = system: Rattus norvegicus; experiment: Toxicity in Sprague-Dawley rat assessed as convulsion at 240 mg/kg, po; type: organism-based; design: dose 240 mg/kg, route oral; settings: in vivo
[3] = system: Rattus norvegicus; experiment: Toxicity in fasted Sprague-Dawley rat assessed as mortality at 240 mg/kg, po measured at 60 mins; type: organism-based; design: dose 240 mg/kg, route oral; settings: in vivo, 1 h
[4] = system: Rattus norvegicus; experiment: Narcotic antagonist activity in fed Sprague-Dawley rat assessed as decrease in phenazocine-induced analgesic activity at 80 mg/kg, sc; type: functional; design: scale not given: the % may be the effect or the level left; settings: route subcutaneous
[5] = system: Rattus norvegicus; experiment: Hypoglycemic activity in glucose loaded Sprague-Dawley rat assessed as reduction of blood glucose level at 89 mg/kg, po relative to control; type: functional; design: scale not given: the % may be the effect or the level left
[6] = system: Rattus norvegicus; experiment: Narcotic analgesic activity in fasted Sprague-Dawley rat at 240 mg/kg, po measured at 15 mins by D'Amour-Smith tail-flick test relative to control; type: functional
[7] = system: Mus musculus; experiment: Analgesic activity in Swiss-Webster mouse assessed as reduction of acetylcholine-induced writhing at 25 mg/kg, sc relative to control; type: functional; design: scale not given: the % may be the effect or the level left; settings: route subcutaneous
[8] = system: Rattus norvegicus; experiment: Toxicity in Sprague-Dawley rat assessed as rigidity at 240 mg/kg, po; type: organism-based; design: dose 240 mg/kg, route oral; settings: in vivo
[9] = system: Rattus norvegicus; experiment: Hypoglycemic activity in Sprague-Dawley rat assessed as reduction of blood glucose level at 100 mg/kg, po by glucagon-impaired glucose disposal test relative to control; type: functional; design: scale not given: the % may be the effect or the level left
[10] = system: Rattus norvegicus; experiment: Hypoglycemic activity in Sprague-Dawley rat assessed as reduction of blood glucose level at 88 mg/kg, po by glucagon-impaired glucose disposal test in presence of microsomal enzyme inhibitor SKF 525-A; type: functional, organism-based; design: dose 88 mg/kg
[11] = system: Rattus norvegicus; experiment: Narcotic analgesic activity in fasted Sprague-Dawley rat at 120 mg/kg,sc measured at 30 mins by D'Amour-Smith tail-flick test in presence of opioid antagonist nalorphine; type: functional, organism-based; design: dose 120 mg/kg
[12] = system: Rattus norvegicus; experiment: Hypoglycemic activity in Sprague-Dawley rat assessed as reduction of blood glucose level at 88 mg/kg, po by glucagon-impaired glucose disposal test in presence of opioid antagonist nalorphine; type: functional, organism-based; design: dose 88 mg/kg
[13] = species on record: Rattus norvegicus; experiment: Narcotic analgesic activity in Sprague-Dawley rat at 15 mins by D'Amour-Smith tail-flick test in presence of microsomal enzyme inhibitor SKF 525-A; type: functional, organism-based
[14] = system: Rattus norvegicus; experiment: Hypoglycemic activity in sc dosed fasted Sprague-Dawley rat assessed as reduction of blood glucose level measured for 0.5 to 2 hrs; type: functional, organism-based
[15] = system: Rattus norvegicus; experiment: Narcotic analgesic activity in po dosed fasted Sprague-Dawley rat measured at 15 mins by D'Amour-Smith tail-flick test; type: functional; settings: 0.25 h
[16] = system: Mus musculus; experiment: Analgesic activity in po dosed Swiss-Webster mouse assessed as reduction of acetylcholine-induced writhing; type: functional
[17] = system: Mus musculus; experiment: Toxicity in Swiss-Webster mouse assessed as stimulation of straub tail at 150 mg/kg, po after 15 to 25 mins; type: organism-based; design: dose 150 mg/kg, route oral; settings: in vivo
[18] = system: Rattus norvegicus; experiment: Narcotic analgesic activity in fed Sprague-Dawley rat at 120 mg/kg, sc measured at 30 mins by D'Amour-Smith tail-flick test; type: functional; settings: route subcutaneous
[19] = system: Rattus norvegicus; experiment: Toxicity in Sprague-Dawley rat assessed as tremor at 120 mg/kg, sc; type: organism-based; design: dose 120 mg/kg, route subcutaneous; settings: in vivo
[20] = system: Mus musculus; experiment: Toxicity in Swiss-Webster mouse assessed as sedation at 40 mg/kg, sc; type: organism-based; design: dose 40 mg/kg, route subcutaneous; settings: in vivo
[21] = system: Rattus norvegicus; experiment: Hypoglycemic activity in Sprague-Dawley rat assessed as reduction of blood glucose level at 88 mg/kg, po by glucagon-impaired glucose disposal test relative to control; type: functional; design: scale not given: the % may be the effect or the level left
[22] = system: Rattus norvegicus; experiment: Narcotic analgesic activity in fasted Sprague-Dawley rat at 240 mg/kg, po measured at 60 mins by D'Amour-Smith tail-flick test relative to control; type: functional
[23] = system: Rattus norvegicus; experiment: Hypoglycemic activity in glucose loaded Sprague-Dawley rat assessed as reduction of blood glucose level at 100 mg/kg, po relative to control; type: functional; design: scale not given: the % may be the effect or the level left
[24] = system: Mus musculus; experiment: Analgesic activity in Swiss-Webster mouse assessed as reduction of acetylcholine-induced writhing at 75 mg/kg, sc relative to control; type: functional; design: scale not given: the % may be the effect or the level left; settings: route subcutaneous
[25] = system: Rattus norvegicus; experiment: Narcotic analgesic activity in po dosed fasted Sprague-Dawley rat measured at 60 mins by D'Amour-Smith tail-flick test; type: functional
[26] = system: Rattus norvegicus; experiment: Narcotic analgesic activity in sc dosed fed Sprague-Dawley rat measured at 30 mins by D'Amour-Smith tail-flick test; type: functional; settings: Rattus norvegicus, Sprague-Dawley, Tail, sc, 0.5 h; read-out: ED50
[27] = system: Rattus norvegicus; experiment: Toxicity in Sprague-Dawley rat assessed as rigidity at >=120 mg/kg, po; type: organism-based; settings: in vivo
[28] = system: Rattus norvegicus; experiment: Analgesic activity in po dosed rat assessed as reduction of intraarterial bradykinin-induced pain response; type: functional
[29] = system: Rattus norvegicus; experiment: Toxicity in Sprague-Dawley rat assessed as tremor at >= 120 mg/kg, po; type: organism-based; design: dose 120 mg/kg, route oral; settings: in vivo
[30] = system: Rattus norvegicus; experiment: Toxicity in Sprague-Dawley rat assessed as hyperexcitability at >= 120 mg/kg, po; type: organism-based; design: dose 120 mg/kg, route oral; settings: in vivo
[31] = system: Rattus norvegicus; experiment: Toxicity in Sprague-Dawley rat assessed as mortality at >= 120 mg/kg, po; type: organism-based; design: dose 120 mg/kg, route oral; settings: in vivo
[32] = system: Rattus norvegicus; experiment: Potency index, ratio of codeine ED50 to compound ED50 for analgesic activity in po dosed rat assessed as reduction of intraarterial bradykinin-induced pain response; type: functional
[33] = system: Rattus norvegicus; experiment: Hypoglycemic activity in fasted Sprague-Dawley rat assessed as reduction of blood glucose level at 100 mg/kg, po relative to control; type: functional; design: scale not given: the % may be the effect or the level left
[34] = system: Rattus norvegicus; experiment: Analgesic activity in rat assessed as protection against intraarterial bradykinin-induced pain response at 100 mg/kg, sc; type: functional, organism-based; design: dose 100 mg/kg

## COC(=O)[C@H]1C[C@H]2CC[C@H]([C@H]1c1ccccc1)N2C (stereo in doubt; (-)-5)
[1]
  ED50: 18 mg/kg
[2]
  Activity: Toxic
[3]
  Activity: Toxic
[4]
  Activity: 73%

## COC(=O)[C@H]1C[C@H]2CC[C@H]([C@H]1c1cccs1)N2CC(N)=O.Cl
[5]
  Activity: 66%
[6]
  Activity: 72%
[7]
  Activity: 13%
[8]
  Activity: Toxic

## CC[N+]12Cc3ccsc3[C@H]3[C@@H](C(=O)OC)C[C@H]1CC[C@H]32
[9]
  Activity: <20%
[1]
  ED50: 3.8 mg/kg

## COC(=O)[C@H]1C[C@H]2CC[C@H]([C@H]1c1cccs1)N2C (racemic)
[10]
  Activity: inactive
[11]
  Activity: inactive
[12]
  Activity: Active
[13]
  Activity: inactive
[14]
  Activity: inactive

## CCOC(=O)[C@H]1C[C@H]2CC[C@H]([C@H]1c1cccs1)N2C
[9]
  Activity: <20%
[15]
  ED50: 95 mg/kg
[16]
  ED50: 21 mg/kg
[17]
  Activity: Toxic

## COC(=O)[C@H]1C[C@H]2CC[C@H]([C@H]1c1ccc(O)cc1)N2C
[9]
  Activity: <20%

## COC(=O)[C@H]1C[C@H]2CC[C@H]([C@H]1c1ccccc1)N2C.Cl (racemic)
[18]
  Activity: <20%
[1]
  ED50: 12 mg/kg
[19]
  Activity: Toxic
[20]
  Activity: Toxic
[21]
  Activity: 24%

## CCCCCOC(=O)[C@H]1C[C@H]2CC[C@H]([C@H]1c1cccs1)N2C
[9]
  Activity: <20%
[22]
  Activity: <20%
[6]
  Activity: <20%
[7]
  Activity: 27%

## CCCCCN1[C@@H]2CC[C@@H]1[C@@H](c1cccs1)[C@@H](C(=O)OCC)C2
[23]
  Activity: 61%
[22]
  Activity: 65%
[24]
  Activity: 13%

## COC(=O)[C@H]1C[C@H]2CC[C@@H](N2)[C@H]1c1cccc(O)c1.Cl
[22]
  Activity: <20%
[6]
  Activity: <20%
[1]
  ED50: 24 mg/kg
[21]
  Activity: <20%

## CCOC(=O)N(CN1[C@@H]2CC[C@@H]1[C@@H](c1cccs1)[C@@H](C(=O)OC)C2)NC(=O)OC
[23]
  Activity: 80%

## COC(=O)[C@H]1C[C@H]2CC[C@H]([C@H]1c1cccs1)N2C
[10]
  Activity: inactive
[11]
  Activity: inactive
[12]
  Activity: Active
[13]
  Activity: inactive

## COC(=O)[C@H]1C[C@H]2CC[C@H]([C@H]1c1cccs1)N2C.Cl
[25]
  ED50: 59 mg/kg
[26]
  ED50: 60 mg/kg
[27]
  Activity: Toxic
[28]
  ED50: 6.9 mg/kg
[29]
  Activity: Toxic
[30]
  Activity: Toxic
[31]
  Activity: Toxic
[32]
  Ratio ED50: >10
[21]; 88 mg/kg
  Activity: 75%

## COC(=O)[C@H]1C[C@H]2CC[C@H]([C@H]1c1cccs1)N2CC1CCCO1 (stereo partly specified)
[33]
  Activity: 39%
[6]
  Activity: 72%

## COC(=O)[C@H]1C[C@H]2CC[C@H]([C@H]1c1cccc(O)c1)N2C.Cl
[18]
  Activity: <20%
[1]
  ED50: 24 mg/kg
[34]
  Activity: inactive
[21]
  Activity: <20%
